The values below come from US20240002441A1, “PEPTIDES AND USES THEREOF IN MODULATION OF AMYLOID-BETA PROTEIN DEGRADING PROTEASES” (priority 2020, published 2024).

The target in one series is T1, NEP (Homo sapiens, UniProt P08473).
T1 construct: purchased R & D systems 1182-ZNC-010
In words: Cleavage of synthetic Aβ40 by NEP, LCMS (Example 7). In kind it is biochemical. Particulars: peptide 9 μM. The procedure:
Synthetic Aβ40 (0.10 μg/μL) was added to a reaction mixture containing NEP (0.05 ng/μL) pre-incubated with SEQ ID NO:2 or scrambled control (9 μM) for 1 h at 37° C. Synthetic Aβ42 (0.05 μg/μL) was added to a reaction mixture containing NEP (0.15 ng/μL) preincubated with either scrambled control or SEQ ID NO:2 (9 μM) for 1 h at 37° C. Samples containing enzyme alone had only NEP buffer (Table 2). The cleavage reaction was allowed to continue in a thermomixer at 37° C. Aliquots of equal volume were taken over 24 h. Aliquots were immediately acidified with 0.1% trifluoroacetic acid (TFA) to terminate enzyme activity and snap frozen in dry ice. Samples were stored at −80° C. until analysed by LCMS.
Samples were analysed by LC-MS/MS using a quadrupole TOF mass spectrometer (MicroTOFq, Bruker Daltonics, Bremen, Germany) coupled online with a 1200 series nano-HPLC (Agilent technologies, Santa Clara, CA, USA). Samples were injected onto a zorbax 300SB reversed phase trap column with 95% solvent A (0.1% formic acid) at a flow rate of 10 μL/minute. The peptides were eluted over a 10-min gradient to 70% solvent B (80% acetonitrile, 0.1% formic acid) and separated on a 15-cm, 75-μmID zorbax 300SB nanocolumn. The eluent was nebulised and ionised using the Bruker nano-ESI source with a capillary voltage of 4500 V, dry gas at 180° C., flow rate of 5 L/minute and nebuliser gas pressure at 300 mbar. The MS acquisition was in selected ion monitoring mode after selected ion extraction of the MS spectra. Prior to analysis, the qTOF mass spectrometer was calibrated using a 1:50 dilution tuning mix (Agilent technologies, Santa Clara, CA, USA). Data from MS run were processed in Skyline version 19.1.0.193 (Uni. Of Washington, WA, USA) to perform ion chromatogram extractions and peak integrations.

The test system of another series is EA.hy926 cells. Description: Peptide stability study in EA.hy926 endothelial cells, LCMS (Example 4). The settings on record: peptide 9 μM, Opti-MEM. In kind it is in vitro ADME. As for the experimental part:
SEQ ID NO:2 was prepared as a C-terminal amidated analogue of SEQ ID NO:1. The stability of SEQ ID NO:1 and SEQ ID NO:2 was assessed in HEK293 and EA.hy926 cells grown in culture and their break down was monitored by LCMS over 60 min using the following procedure.
HEK293 (passage 24) or Ea.hy926 (passage 37) were seeded into tissue-culture-grade 96-well plates at a density of 20,000 cells/well. After 24 hr, cells were washed with PBS and replaced with Opti-MEM reduced serum media containing SEQ ID NO:1 or SEQ ID NO:2 (9 μM). Aliquots of equal volume were taken at T=0 and 60 min. SEQ ID NO:2 was added to control wells having media (no cells) only. Samples were immediately acidified in 0.1% TFA, snap frozen in dry ice and stored in −80° C. until analysed by LCMS.
Samples were analyzed by LC-MS/MS on a Shimadzu Nexera uHPLC (Japan) coupled to a Triple Tof 5600 mass spectrometer (ABSCIEX, Canada) equipped with a duo electrospray ion source. One μL of each extract was injected onto a 2.1 mm×100 mm Zorbax C18 1.8 um column (Agilent) at 200 μL/min. […] SEQ ID NO:1 and SEQ ID NO:2 were quantified using the […] doubly charged molecular ion from m/z 510.270 to 510.325. The data was acquired using Analyst TF 1.6 and quantification was carried out using MultiQuant 2.1.1 software (ABSCIEX, Canada).

In the next series the target is T2, ACE1 (Homo sapiens, UniProt P12821).
T2 construct: purchased Sigma Aldrich SRP6270-10UG
T2 sequence (P12821 30-1306): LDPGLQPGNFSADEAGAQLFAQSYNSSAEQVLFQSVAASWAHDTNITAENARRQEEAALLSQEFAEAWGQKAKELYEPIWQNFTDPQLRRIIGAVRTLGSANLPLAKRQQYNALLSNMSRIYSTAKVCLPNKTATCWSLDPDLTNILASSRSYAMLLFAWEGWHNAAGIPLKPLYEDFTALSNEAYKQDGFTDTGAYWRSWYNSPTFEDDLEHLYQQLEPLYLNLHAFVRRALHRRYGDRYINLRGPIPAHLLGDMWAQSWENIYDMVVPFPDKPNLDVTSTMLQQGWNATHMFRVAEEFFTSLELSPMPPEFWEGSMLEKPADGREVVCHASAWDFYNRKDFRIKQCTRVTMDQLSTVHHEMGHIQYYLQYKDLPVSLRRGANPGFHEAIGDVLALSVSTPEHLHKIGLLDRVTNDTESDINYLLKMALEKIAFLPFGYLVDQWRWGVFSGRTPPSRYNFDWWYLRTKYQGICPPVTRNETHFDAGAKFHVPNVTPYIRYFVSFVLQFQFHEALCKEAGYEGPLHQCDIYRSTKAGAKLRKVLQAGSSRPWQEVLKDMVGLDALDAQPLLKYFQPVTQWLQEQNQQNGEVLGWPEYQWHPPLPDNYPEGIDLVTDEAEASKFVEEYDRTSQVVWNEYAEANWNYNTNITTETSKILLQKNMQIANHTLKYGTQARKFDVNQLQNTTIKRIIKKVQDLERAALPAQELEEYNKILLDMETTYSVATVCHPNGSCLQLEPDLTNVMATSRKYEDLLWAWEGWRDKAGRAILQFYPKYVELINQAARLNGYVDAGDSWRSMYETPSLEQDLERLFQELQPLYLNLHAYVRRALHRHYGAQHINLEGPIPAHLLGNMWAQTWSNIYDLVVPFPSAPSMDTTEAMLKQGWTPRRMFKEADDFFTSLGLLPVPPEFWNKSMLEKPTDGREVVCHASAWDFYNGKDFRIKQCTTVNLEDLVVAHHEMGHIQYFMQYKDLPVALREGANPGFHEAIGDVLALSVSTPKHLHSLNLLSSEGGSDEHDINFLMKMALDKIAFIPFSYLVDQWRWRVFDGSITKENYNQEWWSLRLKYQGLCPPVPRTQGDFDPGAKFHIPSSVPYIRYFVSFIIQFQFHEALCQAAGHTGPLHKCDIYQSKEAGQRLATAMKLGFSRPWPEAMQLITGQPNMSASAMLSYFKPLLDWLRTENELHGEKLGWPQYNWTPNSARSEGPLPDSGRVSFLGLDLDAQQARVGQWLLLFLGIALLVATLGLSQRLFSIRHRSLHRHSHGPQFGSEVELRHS
Description: QFS assay of Aβ-degrading enzymes: ACE1 (Example 6). The format is biochemical. The procedure: Plate reader-based enzyme assays were performed using a quenched fluorescent substrate (QFS) in a 96-well format using a SpectraMAX M4 Microplate reader (Molecular Devices). The increase in fluorescence following addition of QFS (40 μM) was taken as evidence of enzyme activity. Fluorescence was monitored over 2 h at 37° C. using κEx=320 nm and λEm=405 nm. Assays were conducted in black 96-well plates. Specific enzyme activity was expressed as a rate of substrate cleavage calculated using a standard curve of 7-methoxy-coumarin-4-acetic acid.
In all plate reader-based enzyme assays using QFS, the reaction rate (μmol of substrate cleaved/min) was calculated using linear regression analysis (GraphPad Prism software version 8.01). The reaction rates calculated were used to generate the enzyme kinetic parameters Vmax and Km through non-linear regression analysis (GraphPad Prism software, version 8.01; Michaelis-Menten equation). Where indicated, enzyme activity in the presence of peptide was expressed as a % of the enzyme alone. Data were expressed as mean±SEM and statistical significance was determined using t-tests or one-way ANOVAs followed by Tukey's post-hoc test. P<0.05 was considered as statistically significant. In all assays conducted using 96-well plates, the reaction mixtures in each well were considered an independent experiment.
SEQ ID NO:2 was assessed in a QFS assay against enzymes NEP, ECE1, ECE2, ACE1, ACE2, IDE and MMP-2 using the method in Example 2 and the following procedure. NEP, ACE1, ECE2 (0.05 ng/μL), ACE2, IDE (0.10 ng/μL), and ECE1 (6.4 ng/μL) were incubated with SEQ ID NO:2 (0.9-26 μM) or scrambled control (9 μM) for 1 h at 37° C. Prior to use, MMP2 (0.50 ng/μL) was activated using p-aminophenylmercuric acetate to a final concentration of 100 μM for 1 h at 37° C. Following activation, MMP2 was incubated with SEQ ID NO:2 for 1 h at 37° C. before adding the appropriate QFS.

T1 sequence (P08473 whole entry): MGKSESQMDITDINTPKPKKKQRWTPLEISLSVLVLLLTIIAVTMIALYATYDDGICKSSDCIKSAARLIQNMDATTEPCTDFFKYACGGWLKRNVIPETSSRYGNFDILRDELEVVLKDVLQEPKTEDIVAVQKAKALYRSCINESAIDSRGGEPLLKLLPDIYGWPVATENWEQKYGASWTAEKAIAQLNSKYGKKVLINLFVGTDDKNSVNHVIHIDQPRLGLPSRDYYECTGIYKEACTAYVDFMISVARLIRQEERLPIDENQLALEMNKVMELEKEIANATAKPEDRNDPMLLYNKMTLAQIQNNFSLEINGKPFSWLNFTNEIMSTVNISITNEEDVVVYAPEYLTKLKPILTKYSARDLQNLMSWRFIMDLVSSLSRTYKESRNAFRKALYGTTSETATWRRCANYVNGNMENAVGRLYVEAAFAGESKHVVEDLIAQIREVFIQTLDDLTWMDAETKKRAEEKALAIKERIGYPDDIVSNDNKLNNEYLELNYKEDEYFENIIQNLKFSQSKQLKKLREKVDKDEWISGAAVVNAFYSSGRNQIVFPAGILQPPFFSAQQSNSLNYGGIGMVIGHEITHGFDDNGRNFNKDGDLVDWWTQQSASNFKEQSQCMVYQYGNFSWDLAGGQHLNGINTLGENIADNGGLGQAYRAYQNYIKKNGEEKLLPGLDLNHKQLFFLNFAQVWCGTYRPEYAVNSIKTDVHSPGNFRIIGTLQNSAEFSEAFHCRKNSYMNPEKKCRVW

Consider “H-SLFELGKMIL-NH2 [SEQ ID NO:2, H2N-SLFELGKMIL-NH2]”, for which the “decrease in Aβ1-21 peak area over 4-20 h” value at NEP (Aβ40 cleavage) is given as 7.5×10^7±1.3×10^7 arbitrary units. In addition, the “levels of Aβ1-21 (peak area) at 4 h” value on NEP (Aβ40 cleavage, 4 h) is recorded as 7.9×10^7±1.3×10^7 arbitrary units. In addition, on NEP (Aβ40 cleavage, 24 h), the “levels of Aβ1-21 (peak area) at 24 h” value is reported as 4.1×10^6±4.8×10^5 arbitrary units. At NEP (Aβ40 cleavage, 24 h), the “peak area corresponding to Aβ1-12 after 24 h” value is reported as 1.3×10^8±7.9×10^6 arbitrary units. For the same substance, on NEP (NEP 0.05 ng/μL), the “time at which breakdown of Aβ40 was complete” value was 4 h. Also, at NEP (NEP 0.05 ng/μL, Aβ40 0.10 μg/μL, 4 h), the “amount of Aβ40 remaining after 4 h (peak area)” value is listed as 1.3×10^6±2.7×10^5 arbitrary units. Besides, the “amount of Aβ40 remaining after 24 h, SEQ ID NO:2 versus scrambled control” value on NEP (24 h) is on record as “no significant difference”. Further, in the series on EA.hy926 cells, the “relative amount remaining in the medium of endothelial cells at 60 min” value is 26%±5%. In addition, the “ACE1 activity compared with respective enzyme alone” value on ACE1 (peptide 2 μM (FIG. 2c)) is given as “significantly increased”; on ACE1 (peptide 9 μM, significantly less compared with ACE2 and NEP) it was “significantly higher”. Besides, the “ACE1 activity, concentration dependence” value on ACE1 (peptide 0.9-26 μM) is on record as “increased the activity”.
